Several values for one entry are separate records, joined by “and”; a condition that tells them apart may be missing. Equal entries are not always repeated.
Tests used:
HeLa cells [1] = assay: immunocytochemistry of laminin γ1 aggregation in tunicamycin-treated cells; assay type: cell-based; conditions: HeLa, Tm 0.5 μg/ml, 5 hours, 50 μM KUS
Description: Figure 4 KUSs and ATP each prevented a decrease of ATP levels and ameliorated ER stress in tunicamycin-treated cells. (a) Immunocytochemical analyses of HeLa cells by an anti-laminin γ1 antibody. HeLa cells were treated with 0.5 μg/ml of tunicamycin (Tm) for 5 hours in the presence of KUSs (50 μM), ATP (0.1, 0.3, and 1 mM), methylpyruvate (MePyr) (3 and 10 mM), or vehicle alone (DMSO). Then, cells were fixed and subjected to immunocytochemical analyses. Normally growing HeLa cells were also analyzed (Control). Scale bar, 10 μm. (b) Measurements of the relative amounts of ATP per cell. HeLa cells were treated with tunicamycin (Tm, 0.5 μg/ml) for 24 hours in the presence of KUSs (50 μM) or ATP (0.1 and 1 mM), or vehicle alone (DMSO), and were harvested. Then, ATP amounts from 1.5 × 10^5 cells were measured. * P < 0.05, ** P < 0.01. Error bars indicate SD. (c) Western blot analyses on CHOP. HeLa cells were treated with 0.5 μg/ml of tunicamycin for 5 hours in the presence of KUSs (50 μM), ATP (0.1, 0.3, and 1 mM), methylpyruvate (MePyr) (3 and 10 mM), or vehicle alone (-). Then, cells were harvested and subjected to western blot analyses. Actin served as a loading control. Complete scans of the different blots are presented in Supplementary Fig. 9.

recombinant VCP = recombinant VCP (Homo sapiens, UniProt P55072); assay: ATPase activity of recombinant VCP in vitro (modified molybdate assay, [γ-32P]ATP); assay type: biochemical
recombinant VCP, sequence (P55072 whole entry, species assumed): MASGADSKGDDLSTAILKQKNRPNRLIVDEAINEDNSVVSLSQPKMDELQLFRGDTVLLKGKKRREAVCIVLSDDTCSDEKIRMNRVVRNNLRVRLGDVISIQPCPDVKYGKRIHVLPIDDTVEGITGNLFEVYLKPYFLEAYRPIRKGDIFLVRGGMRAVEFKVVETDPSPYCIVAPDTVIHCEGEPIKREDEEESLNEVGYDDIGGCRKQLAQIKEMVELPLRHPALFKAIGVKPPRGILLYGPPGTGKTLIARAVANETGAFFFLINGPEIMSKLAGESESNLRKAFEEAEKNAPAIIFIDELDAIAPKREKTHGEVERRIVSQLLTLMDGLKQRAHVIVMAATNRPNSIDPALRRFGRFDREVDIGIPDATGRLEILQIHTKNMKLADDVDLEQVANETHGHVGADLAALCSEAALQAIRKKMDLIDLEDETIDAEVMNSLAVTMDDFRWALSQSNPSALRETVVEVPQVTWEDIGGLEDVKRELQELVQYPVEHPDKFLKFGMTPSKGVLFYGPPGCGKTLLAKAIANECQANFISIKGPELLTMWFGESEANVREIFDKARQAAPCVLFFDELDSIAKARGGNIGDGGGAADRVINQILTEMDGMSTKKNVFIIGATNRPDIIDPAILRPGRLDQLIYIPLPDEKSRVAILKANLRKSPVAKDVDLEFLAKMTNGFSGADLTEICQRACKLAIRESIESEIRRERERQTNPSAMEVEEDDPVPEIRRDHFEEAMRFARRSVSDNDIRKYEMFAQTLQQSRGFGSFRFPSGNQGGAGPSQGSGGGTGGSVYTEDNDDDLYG
Description: We measured ATPase activities by modifying the molybdate assay, which was as described previously. In the assay, 1 μg of whole cell soluble lysate of neuronally differentiated PC12 cells, or 500 ng recombinant VCP protein, was incubated in 20 μl of the ATPase assay buffer (20 mM HEPES (pH 7.4), 50 mM KCl, 5 mM MgCl2) with 100 μM [γ-^32P]ATP (18.5 GBq/mmol) (PerkinElmer) at 37°C for 20 min. After incubation, the reaction was quenched by addition of 200 μl of 8% ice-cold trichloroacetic acid solution with 1 mM K2HPO4, and then 50 μl of solution A (3.75% ammonium molybdate, 0.02 M silicotungstic acid in 3 N H2SO4) and 300 μl of n-butyl acetate were added to the reaction. The samples were mixed well and centrifuged at 12,000 × g for 1 min. Then, 200 μl aliquots from the upper organic phases were taken and their radioactivity was determined with a liquid scintillation counter for β-radiation, which determined the amounts of ^32P released.

HeLa cells [2] = assay: cell death-inducing activity; assay type: cell-based; conditions: 50 μM, 24 hours
Text: Figure 1 Structures and characterization of KUSs, novel VCP modulators. (a) Structures and IC50 values of KUS11, KUS31, KUS69, KUS94, KUS121, and KUS187. […] (b) ATPase activity assays of recombinant human […], comparing KUSs and DBeQ. (c) Immunoblot analysis of ubiquitinated proteins, an ER stress marker (CHOP), and an autophagy indicator (LC3), comparing KUSs and DBeQ. As a control, MG132, a proteasome inhibitor, was used for the analysis. Actin served as a loading control. Complete scans of the different blots are presented in Supplementary Fig. 7. (d) Comparison of KUSs and DBeQ for cell death-inducing activities. HeLa cells were treated with 50 μM DBeQ or KUSs for 24 hours. […]

retinal neuronal cells = assay: retinal organ culture with NMDA insult; assay type: cell-based, mouse; conditions: 200 µM NMDA, 50 µM KUS121, 4 days
Description: Supplementary Figure Legends
Supplementary Figure 1 Inhibitory effects of KUS121, KUS187, and DBeQ on the ATPase activity of recombinant VCP purified from E. coli.
Supplementary Figure 2 (a) HeLa cells were cultured in medium with low glucose (0.25 g/l) for 20 hours, with or without KUSs, and ATP levels were measured with luciferase assays. *** P < 0.005 vs. DMSO control (Dunnett’s test, n=3). HG: medium with 4.5 g/l glucose. Error bars indicate SD. (b) HeLa cells were cultured in medium with low glucose (0.2 g/l) for 20 hours, with DMSO or KUSs, and ATP and ADP levels were measured by HPLC. The respective ratios of ATP/ADP are shown. * P < 0.05, ** P < 0.01 vs. DMSO control (Dunnett’s test, n=3). Error bars indicate SD. (c) HeLa cells were cultured in medium without glucose for 6 hours, with (50 µM each KUS, as indicated) or without KUSs, and acetyl-CoA levels were measured by HPLC.
Supplementary Figure 3 Immunohistochemical analyses of retinal neuronal cells.
Retinal sections of 5-month-old C57BL/6 mice were stained with (b) or without (a) an anti-VCP antibody12, developed with diaminobenzidine and counter-stained with hematoxylin (a, b). Note that all retinal neuronal cells highly expressed VCP. GCL: ganglion cell layer, IPL: inner plexiform layer, INL: inner nuclear layer, OPL: outer plexiform layer, ONL: outer nuclear layer, IS: inner segment, OS: outer segment.
Retinas from adult C57BL/6 mice were cultured on porous membrane with 200 µM of NMDA with or without KUS121 (50 µM) for 4 days. (a) HE-stained retinal sections.
In the retina cultured with KUS121, the inner nuclear layer (INL), inner plexiform layer (IPL), ganglion cell layer (GCL), and retinal nerve fiber layer (RNFL) were thicker than that of the retina without KUS121. (b) TUNEL staining of the retinal […]
Supplementary Figure 5 (a) Cross sectional (vertical) images obtained by spectral-domain optical coherence tomography (SD-OCT) in 21-day-old C57BL/6 wild-type (WT) and rd10 mice with or without KUSs. […] (c) The mean amplitude of the a-wave (measured at 25 msec), which is derived from photoreceptors, in KUS-treated […]

Cc1cc(F)ccc1-c1ccc(/N=N/c2cc(S(=O)(=O)O)c3ccccc3c2N)cn1 [KUS121]
aggregation of laminin γ1 (HeLa cells [1]): clearly prevented the aggregation of laminin γ1 | IC50 (recombinant VCP): 200 to 300 nM and 330 nM | induction of cell death (HeLa cells [2]): did not induce any of these phenotypes | TUNEL-positive apoptotic cells (retinal neuronal cells): More TUNEL-positive apoptotic cells (green) were observed in the retina | thickness of INL, IPL, GCL and RNFL (HE-stained sections) (retinal neuronal cells; vs retina without KUS121): thicker | protection of retinal neuronal cells from NMDA insult (retinal neuronal cells; retinas from adult C57BL/6 mice): protects retinal neuronal cells from NMDA insult

Source: paper PMC4122966, “Novel VCP modulators mitigate major pathologies of rd10, a mouse model of retinitis pigmentosa” (Scientific Reports, 2014)
